6 compounds from patent US12624012B2, “14-chloro-β-elemene nitric oxide donor derivative and preparation method and use thereof” (HANGZHOU NORMAL UNIVERSITY, priority 2021, dated 2026) can be followed below.

A short description of test [1]: In vitro NO release test (incubation with L-cysteine, OD at 550 nm). Particulars: 100 μM solution with cysteine solution, 37° C. As to the method:
• (1) Sodium nitrite solutions with different concentrations were prepared. A calibration curve was drawn. • (2) The sample was treated. A 100 μM solution was prepared. 2.5 mL of the prepared compound solution and 2.5 mL of the cysteine solution were taken and incubated at 37° C. for 120 min, and the resulting mixture was sampled at different time points. • (3) A blank hole and a standard hole were set. 160 μL of the sample was collected and mixed evenly with 0.08 mL of a developer and stood at 37° C. for 15 min. At λ=550 nm, the OD value of absorbance was measured by the enzyme marker. The NO release levels were obtained by substituting the value into the standard curve.

For test [2], the system named is SW620. Put plainly: In vitro anti-tumor activity evaluation test (CCK-8), SW620. It is filed as cell-based, human. Particulars: Homo sapiens, SW-620, SW620, 72 h; for inhibition at 1 µM: read-out: Inhibitory rates against tumor cell lines. As for the experimental part:
(§1) • (1) Cells were digested and counted. Cell suspensions (H520, SW620 5.0×10^4 cells/mL, and U87MG 3.5×10^4 cells/mL) were prepared. 100 μL of cell suspension was added to each well of a 96-well cell culture plate. • (2) The 96-well cell culture plate was incubated in a 37° C., 5%, CO2 incubator for 24 h. • (3) A drug was diluted with a culture medium to a desired working solution concentration. 100 μL of the corresponding drug-containing culture medium was added to each well. At the same time, a negative control group and a positive control group were set up. • (4) The 96-well cell culture plate was incubated in a 37° C., 5%, CO2 incubator for 72 h. • (5) The 96-well plate was stained with CCK-8, and at λ=450 nm, the OD value was determined. • 1) 10 μL of CCK-8 was added to each well. The culture plate continued to be incubated in the incubator for 2-3 h. • 2) The culture plate was rocked for 10 min to gently mix and remove air bubbles from the 96-well plate. • 3) At λ=450 nm, the OD value of each well was read by the enzyme marker, and the inhibitory rates were calculated. • (6) According to the following equation (1), the growth inhibitory rate of the tumor cells was obtained. The obtained results were substituted into an IC 50 calculation software SPSS17.0 to find out the IC50 value.

Test [3] relates to U87MG. Kind of test: In vitro anti-tumor activity evaluation test (CCK-8), U87MG. The format is cell-based, human. The conditions noted are these: Homo sapiens, U-87 MG, U87MG, 72 h; for inhibition at 1 µM: read-out: Inhibitory rates against tumor cell lines; for IC50: read-out: IC50 against different tumor cell lines. As for the experimental part:
as §1

For test [4], the system named is NCI-H520. Kind of test: In vitro anti-tumor activity evaluation test (CCK-8), NCI-H520. The conditions noted are these: Homo sapiens, NCI-H520, 72 h; for inhibition at 1 µM: read-out: Inhibitory rates against tumor cell lines; for IC50: read-out: IC50 against different tumor cell lines. It is filed as cell-based, human. As for the experimental part: as §1

Molecules are shown by their SMILES.

Turning to `C=C[C@]1(C)CC[C@@H](C(=C)CN(CCOC(=O)CCC(=O)OCCOc2no[n+]([O-])c2S(=O)(=O)c2ccccc2)C(C)C)C[C@H]1C(=C)CCl` [Example 5, 4-(2-((4-(2-((2-((1R,3R,4S)-3-(3-chloroprop-1-en-2-yl)-4-methyl-4-vinylcyclohexyl)allyl)(isopropyl)amino)ethyoxyl)-4-oxobutanoyl)oxy)ethyoxyl)-3-(phenylsulfonyl)-1,2,5-oxadiazole 2-oxide], the NO-release concentrations in test [1] (5 min) amounted to 0.59 µM; in test [1] (10 min) it was 41.61 µM; in test [1] (20 min), 48.58 µM; in test [1] (30 min) it was 2.57 µM; in test [1] (60 min) it was 5.58 µM; in test [1] (90 min), 9.22 µM. In addition, the NO-release concentrations in test [1] (120 min) was found to be 13.64 µM. The inhibition at 1 µM in test [2] turned out to be 33 ± 2.5%; in test [3], 47.1 ± 0.9%; in test [4], 44.2 ± 1.3%. The concentration for half-maximal inhibition (IC50) in test [3] was found to be 0.369 ± 0.025 µM.
In the case of `C=C[C@]1(C)CC[C@@H](C(=C)CN2CCC(COC(=O)CCCC(=O)OCC#CCOc3no[n+]([O-])c3S(=O)(=O)c3ccccc3)CC2)C[C@H]1C(=C)CCl` [Example 16, 4-((4-((5-((1-(2-((1R,3R,4S)-3-(3-chloroprop-1-en-2-yl)-4-methyl-4-vinylcyclohexyl)allyl)piperidin-4-yl)methoxyl)-5-oxopentanoyl)oxy)but-2-yn-1-yl)oxy)-3-(phenylsulfonyl)-1,2,5-oxadiazole 2-oxide], the NO-release concentrations came out at 16.99 µM in test [1] (5 min); 18.93 µM in test [1] (10 min); 22.62 µM in test [1] (20 min); 27.04 µM in test [1] (30 min); 42.47 µM in test [1] (60 min); 64.24 µM in test [1] (90 min). This compound also gave an NO-release concentrations in test [1] (120 min) of 86.29 µM. The inhibition at 1 µM is 39.8 ± 1.9% in test [2], 52.2 ± 3.4% in test [3] and 52.3 ± 1.1% in test [4]. Also, the half-inhibitory concentration (IC50) in test [3] was 2.16 ± 0.548 µM; in test [4], 1.05 ± 0.013 µM.
`C=C[C@]1(C)CC[C@@H](C(=C)CN2CCCC(COC(=O)CCC(=O)OCCOc3no[n+]([O-])c3S(=O)(=O)c3ccccc3)C2)C[C@H]1C(=C)CCl` (stereo partly drawn) [Example 17, 4-(2-((4-((1-(2-((1R,3R,4S)-3-(3-chloroprop-1-en-2-yl)-4-methyl-4-vinylcyclohexyl)allyl)piperidin-3-yl)methoxyl)-4-oxobutanoyl)oxy)ethyoxyl)-3-(phenylsulfonyl)-1,2,5-oxadiazole 2-oxide]: the NO-release concentrations in test [1] (5 min) was 4.84 µM; in test [1] (10 min), 5.66 µM; in test [1] (20 min) it was 6.95 µM; in test [1] (30 min) it was 8.44 µM; in test [1] (60 min), 12.43 µM; in test [1] (90 min) it was 17.81 µM. This compound had an NO-release concentrations in test [1] (120 min) of 22.91 µM. The inhibition at 1 µM in test [2] amounted to 38.3 ± 3%; in test [3] it was 51 ± 2.2%; in test [4] it was 45.4 ± 1.9%. The IC50 came to 1.09 ± 0.04 µM in test [2] (read-out: IC50 against different tumor cell lines) and 0.811 ± 0.016 µM in test [3].
Turning to `C=C[C@]1(C)CC[C@@H](C(=C)CN2CC[C@H](OC(=O)CCC(=O)OCC#CCOc3no[n+]([O-])c3S(=O)(=O)c3ccccc3)C2)C[C@H]1C(=C)CCl` [Example 11, 4-((4-((4-(((S)-1-(2-((1R,3R,4S)-3-(3-chloroprop-1-en-2-yl)-4-methyl-4-vinylcyclohexyl)allyl)pyrrolidine-3-ly)oxy)-4-oxobutanoyl)oxy)but-2-yn-1-yl)oxy)-3-(phenylsulfonyl)-1,2,5-oxadiazole 2-oxide], the NO-release concentrations is 9.49 µM in test [1] (5 min); 10.79 µM in test [1] (10 min); 14.43 µM in test [1] (20 min); 15.99 µM in test [1] (30 min); 24.58 µM in test [1] (60 min); 37.37 µM in test [1] (90 min). Moreover, in test [1] (120 min), the NO-release concentrations came out at 50.99 µM. Also, the inhibition at 1 µM in test [2] is 30.5 ± 3.3%; in test [3] it was 42 ± 6.5%; in test [4] it was 46 ± 1%. In test [4], the IC50 is 1.02 ± 0.041 µM.
With `C=C[C@]1(C)CC[C@@H](C(=C)CN2CCN(CCOC(=O)CCCC(=O)OCC#CCOc3no[n+]([O-])c3S(=O)(=O)c3ccccc3)CC2)C[C@H]1C(=C)CCl` [Example 24, 4-((4-((5-(2-(4-(2-((1R,3R,4S)-3-(3-chloroprop-1-en-2-yl)-4-methyl-4-vinylcyclohexyl)allyl)piperazin-1-yl)ethyoxyl)-5-oxyglutaryl)oxy)but-2-yn-1-yl)oxy)-3-(phenylsulfonyl)-1,2,5-oxadiazole 2-oxide], the NO-release concentrations in test [1] (5 min) worked out at 10.64 µM; in test [1] (10 min), 11.37 µM; in test [1] (20 min), 12.38 µM; in test [1] (30 min), 13.68 µM; in test [1] (60 min), 18.24 µM; in test [1] (90 min), 25.90 µM. The compound also displayed an NO-release concentrations in test [1] (120 min) of 34.64 µM. The inhibition at 1 µM in test [2] stood at 43.2 ± 5.5%; in test [3], 50.3 ± 1.2%; in test [4], 46.8 ± 2.1%. The values for the IC50 in test [3] and in test [4] were 0.96 ± 0.075 µM and 1.062 ± 0.002 µM, respectively.
As to `C=C[C@]1(C)CC[C@@H](C(=C)CN(C)CCOC(=O)CCCC(=O)OCCOc2no[n+]([O-])c2S(=O)(=O)c2ccccc2)C[C@H]1C(=C)CCl` [Example 2, 4-(2-((5-(2-((2-((1R,3R,4S)-3-(3-chloroprop-1-en-2-yl)-4-methyl-4-vinylcyclohexyl)allyl)(methyl)amino)ethyoxyl)-5-oxopentanoyl)oxy)ethyoxyl)-3-(phenylsulfonyl)-1,2,5-oxadiazole 2-oxide], the NO-release concentrations in test [1] (5 min) worked out at 2.10 µM; in test [1] (10 min) it was 2.40 µM; in test [1] (20 min), 2.84 µM; in test [1] (30 min), 3.79 µM; in test [1] (60 min), 6.74 µM; in test [1] (90 min), 10.72 µM. The same compound yielded an NO-release concentrations in test [1] (120 min) of 14.97 µM. The inhibition at 1 µM worked out at 42.3 ± 3.7% in test [2], 56 ± 2.1% in test [3] and 48.5 ± 3% in test [4]. Moreover, the half-inhibitory concentration (IC50) is 0.358 ± 0.023 µM in test [3] and 0.777 ± 0.024 µM in test [4].
